Laboratory results: patent publication USRE39591E1, “6-O-substituted ketolides having antibacterial activity” (Abbott Laboratories, priority 1996, dated 2007)
Values after ≈ are worked out from the molar mass of the structure shown.

System: up to 32 different microorganisms
Assay: in vitro antibacterial activity (MIC), agar dilution on Brain Heart Infusion (BHI) agar with Steers replicator
Type: cell-based
Details: unit assumed
Experimental: Representative compounds of the present invention were assayed in vitro for antibacterial activity as follows: Twelve petri dishes containing successive aqueous dilutions of the test compound mixed with 10 mL of sterilized Brain Heart Infusion (BHI) agar (Difco 0148-01-5) were prepared. Each plate was inoculated with 1:100 (or 1:10 for slow-growing strains, such as Micrococcus and Streptococcus) dilutions of up to 32 different microorganisms, using a Steers replicator block. The inoculated plates were incubated at 35°-37° C. for 20 to 24 hours. In addition, a control plate, using BHI agar containing no test compound, was prepared and incubated at the beginning and end of each test.
An additional plate containing a compound having known susceptibility patterns for the organisms being tested and belonging to the same antibiotic class as the test compound was also prepared and incubated as a further control, as well as to provide test-to-test comparability. Erythromycin A was used for this purpose.
After incubation, each plate was visually inspected. The minimum inhibitory concentration (MIC) was defined as the lowest concentration of drug yielding no growth, a slight haze, or sparsely isolated colonies on the inoculum spot as compared to the growth control.

[1] = Candida albicans CCH 442 (code TT)
[2] = Enterococcus faecism ATCC 8043 (code II)
[3] = Escherichia coli DC-2 (code SS)
[4] = Escherichia coli JUHL (code QQ)
[5] = Haemophilis influenzae DILL AMP R (code WW)
[6] = Micrococcus luteus ATCC 4698 (code PP)
[7] = Micrococcus luteus ATCC 9341 (code OO)
[8] = Mycobacterium smegmatis ATCC 114 (code UU)
[9] = Nocardia Asteroides ATCC9970 (code VV)
[10] = Staphylococcus aureus 1775 (code GG)
[11] = Staphylococcus aureus A5177 (code BB)
[12] = Staphylococcus aureus A-5278 (code CC)
[13] = Staphylococcus aureus ATCC 6538P (code AA)
[14] = Staphylococcus aureus CMX 553 (code FF)
[15] = Staphylococcus aureus CMX 642A (code DD)
[16] = Staphylococcus aureus NCTC10649M (code EE)
[17] = Staphylococcus epidermidis 3519 (code HH)
[18] = Streptococcus Pneumonia 5649 (code ZZA)
[19] = Streptococcus Pneumonia 5979 (code ZZ)
[20] = Streptococcus Pneumonia ATCC6303 (code XX)
[21] = Streptococcus Pneumonia GYR 1171 (code YY)
[22] = Streptococcus agalactiae CMX 508 (code KK)
[23] = Streptococcus bovis A-5169 (code JJ)
[24] = Streptococcus pyogenes 930 (code MM)
[25] = Streptococcus pyogenes EES61 (code LL)
[26] = Streptococcus pyogenes PIU 2548 (code NN)

## CCC1OC(=O)C(C)C(=O)C(C)C(OC2OC(C)CC(N(C)C)C2O)C(C)(OCC=Cc2cccc3cccnc23)CC(C)C(=O)C(C)C2NC(=O)OC12C (centres unmarked) [Example 189, R is —CH2CH-(8-quinolyl)]
[1]
  MIC: > 100 µg/mL
[2]
  MIC: 0.05 µg/mL (≈ 0.0653 µM)
[3]
  MIC: 50 µg/mL (≈ 65.3 µM)
[4]
  MIC: 100 µg/mL (≈ 131 µM)
Escherichia coli SS (code RR)
  MIC: 0.39 µg/mL (≈ 0.509 µM)
[5]
  MIC: 8 µg/mL (≈ 10.4 µM)
[6]
  MIC: 0.1 µg/mL (≈ 0.131 µM)
[7]
  MIC: 0.02 µg/mL (≈ 0.0261 µM)
[8]
  MIC: 0.78 µg/mL (≈ 1.02 µM)
[9]
  MIC: 0.05 µg/mL (≈ 0.0653 µM)
[10]
  MIC: > 100 µg/mL
[11]
  MIC: 0.1 µg/mL (≈ 0.131 µM)
[12]
  MIC: > 100 µg/mL
[13]
  MIC: 0.2 µg/mL (≈ 0.261 µM)
[14]
  MIC: 0.1 µg/mL (≈ 0.131 µM)
[15]
  MIC: 0.2 µg/mL (≈ 0.261 µM)
[16]
  MIC: 0.1 µg/mL (≈ 0.131 µM)
[17]
  MIC: 0.2 µg/mL (≈ 0.261 µM)
[18]
  MIC: 0.5 µg/mL (≈ 0.653 µM)
[19]
  MIC: > 32 µg/mL
[20]
  MIC: 0.125 µg/mL (≈ 0.163 µM)
[21]
  MIC: 0.06 µg/mL (≈ 0.0783 µM)
[22]
  MIC: ≤ 0.005 µg/mL
[23]
  MIC: ≤ 0.005 µg/mL
[24]
  MIC: 50 µg/mL (≈ 65.3 µM)
[25]
  MIC: ≤ 0.005 µg/mL
[26]
  MIC: 0.2 µg/mL (≈ 0.261 µM)

## CC[C@H]1OC(=O)[C@H](C)C(=O)[C@H](C)[C@@H](O[C@@H]2O[C@H](C)C[C@H](N(C)C)[C@H]2O)[C@@](C)(OCC#Cc2ccc3cc(Cl)ccc3c2)C[C@@H](C)C(=O)[C@H](C)[C@H]2NC(=O)O[C@@]21C [Example 253, Compound of Formula (IX): L is CO, T is NH, R is —CH2—C≡C-(6-chloro-2-naphthyl)]
Organism code AA
  MIC: 0.05 µg/mL
Organism code BB
  MIC: 0.05 µg/mL
Organism code CC
  MIC: > 100 µg/mL
Organism code DD
  MIC: 0.05 µg/mL
Organism code EE
  MIC: 0.1 µg/mL
Organism code FF
  MIC: 0.05 µg/mL
Organism code GG
  MIC: > 100 µg/mL
Organism code HH
  MIC: 0.05 µg/mL
Organism code II
  MIC: 0.05 µg/mL
Organism code JJ
  MIC: 0.02 µg/mL
Organism code KK
  MIC: 0.02 µg/mL
Organism code LL
  MIC: 0.01 µg/mL
Organism code MM
  MIC: 0.78 µg/mL
Organism code NN
  MIC: 0.05 µg/mL
Organism code OO
  MIC: 0.01 µg/mL
Organism code PP
  MIC: 0.1 µg/mL
Organism code QQ
  MIC: 50 µg/mL
Organism code RR
  MIC: 0.3 µg/mL
Organism code SS
  MIC: 50 µg/mL
Organism code TT
  MIC: > 100 µg/mL
Organism code UU
  MIC: 0.2 µg/mL
Organism code VV
  MIC: 0.02 µg/mL
Organism code WW
  MIC: 2 µg/mL
Organism code XX
  MIC: 0.015 µg/mL
Organism code YY
  MIC: 0.03 µg/mL
Organism code ZZ
  MIC: 1 µg/mL
Organism code ZZA
  MIC: 0.25 µg/mL

## CC[C@H]1OC(=O)[C@H](C)C(=O)[C@H](C)[C@@H](O[C@@H]2O[C@H](C)C[C@H](N(C)C)[C@H]2O)[C@@](C)(OCC=Cc2cnc3ccc(C(=O)O)cc3c2)C[C@@H](C)C(=O)[C@H](C)[C@H]2NC(=O)O[C@@]21C [Example 214]
Organism code AA
  MIC: 6.2 µg/mL (≈ 7.65 µM)
Organism code BB
  MIC: 251 µg/mL (≈ 310 µM)
Organism code CC
  MIC: > 100 µg/mL
Organism code DD
  MIC: 12.5 µg/mL (≈ 15.4 µM)
Organism code EE
  MIC: 12.5 µg/mL (≈ 15.4 µM)
Organism code FF
  MIC: 12.5 µg/mL (≈ 15.4 µM)
Organism code GG
  MIC: > 100 µg/mL
Organism code HH
  MIC: 25 µg/mL (≈ 30.9 µM)
Organism code II
  MIC: 25 µg/mL (≈ 30.9 µM)
Organism code JJ
  MIC: 6.2 µg/mL (≈ 7.65 µM)
Organism code KK
  MIC: 3.1 µg/mL (≈ 3.83 µM)
Organism code LL
  MIC: 1.56 µg/mL (≈ 1.93 µM)
Organism code MM
  MIC: 12.5 µg/mL (≈ 15.4 µM)
Organism code NN
  MIC: 25 µg/mL (≈ 30.9 µM)
Organism code OO
  MIC: 12.5 µg/mL (≈ 15.4 µM)
Organism code PP
  MIC: 12.5 µg/mL (≈ 15.4 µM)
Organism code QQ
  MIC: > 100 µg/mL
Organism code RR
  MIC: 3.1 µg/mL (≈ 3.83 µM)
Organism code SS
  MIC: > 100 µg/mL
Organism code TT
  MIC: > 100 µg/mL
Organism code UU
  MIC: 100 µg/mL (≈ 123 µM)
Organism code VV
  MIC: 50 µg/mL (≈ 61.7 µM)
Organism code WW
  MIC: 64 µg/mL (≈ 79 µM)
Organism code XX
  MIC: 1 µg/mL (≈ 1.23 µM)
Organism code YY
  MIC: 1 µg/mL (≈ 1.23 µM)
Organism code ZZ
  MIC: > 128 µg/mL
Organism code ZZA
  MIC: 32 µg/mL (≈ 39.5 µM)

## CCC1OC(=O)C(C)C(=O)C(C)C(OC2OC(C)CC(N(C)C)C2O)C(C)(OCC=Cc2cnc3ccccc3c2)CC(C)C(=O)C(C)C2N(CCN(C)C)C(=O)OC12C (centres unmarked) [Example 182, Compound of Formula (IX): L is CO, T is N (CH2CH2N(CH3)2), R is —CH2CH═CH(3-quinolyl)]
[1]
  MIC: > 100 µg/mL
[2]
  MIC: 0.1 µg/mL
[3]
  MIC: > 100 µg/mL
[4]
  MIC: > 100 µg/mL
Escherichia coli SS (code RR)
  MIC: 0.39 µg/mL
[5]
  MIC: 8 µg/mL
[6]
  MIC: 0.39 µg/mL
[7]
  MIC: 0.02 µg/mL
[8]
  MIC: 0.39 µg/mL
[9]
  MIC: 0.2 µg/mL
[10]
  MIC: > 100 µg/mL
[11]
  MIC: 0.2 µg/mL
[12]
  MIC: > 100 µg/mL
[13]
  MIC: 0.39 µg/mL
[14]
  MIC: 0.39 µg/mL
[15]
  MIC: 0.39 µg/mL
[16]
  MIC: 0.39 µg/mL
[17]
  MIC: 0.78 µg/mL
[18]
  MIC: 2 µg/mL
[19]
  MIC: > 128 µg/mL
[20]
  MIC: 0.125 µg/mL
[21]
  MIC: 0.25 µg/mL
[22]
  MIC: 0.05 µg/mL
[23]
  MIC: 0.01 µg/mL
[24]
  MIC: 100 µg/mL
[25]
  MIC: 0.01 µg/mL
[26]
  MIC: 0.39 µg/mL

## CC[C@H]1OC(=O)[C@H](C)C(=O)[C@H](C)[C@@H](O[C@@H]2O[C@H](C)C[C@H](N(C)C)[C@H]2O)[C@@](C)(OCC#CBr)C[C@@H](C)C(=O)[C@H](C)[C@H]2NC(=O)O[C@@]21C [Example 258, Compound of Formula (IX): L is CO, T is NH, R is —CH2—C≡C—Br]
Organism code AA
  MIC: 0.78 µg/mL
Organism code BB
  MIC: 0.39 µg/mL
Organism code CC
  MIC: > 100 µg/mL
Organism code DD
  MIC: 0.78 µg/mL
Organism code EE
  MIC: 0.39 µg/mL
Organism code FF
  MIC: 0.78 µg/mL
Organism code GG
  MIC: > 100 µg/mL
Organism code HH
  MIC: 0.78 µg/mL
Organism code II
  MIC: 0.39 µg/mL
Organism code JJ
  MIC: 0.05 µg/mL
Organism code KK
  MIC: 0.1 µg/mL
Organism code LL
  MIC: 0.05 µg/mL
Organism code MM
  MIC: > 100 µg/mL
Organism code NN
  MIC: 0.2 µg/mL
Organism code OO
  MIC: 0.1 µg/mL
Organism code PP
  MIC: 0.39 µg/mL
Organism code QQ
  MIC: > 100 µg/mL
Organism code RR
  MIC: 0.78 µg/mL
Organism code SS
  MIC: > 100 µg/mL
Organism code TT
  MIC: > 100 µg/mL
Organism code UU
  MIC: 12.5 µg/mL
Organism code VV
  MIC: 0.39 µg/mL
Organism code WW
  MIC: 32 µg/mL
Organism code XX
  MIC: 0.03 µg/mL
Organism code YY
  MIC: 0.03 µg/mL
Organism code ZZ
  MIC: > 128 µg/mL
Organism code ZZA
  MIC: 0.125 µg/mL

## CCC1OC(=O)C(C)C(=O)C(C)C(OC2OC(C)CC(N(C)C)C2O)C(C)(OCC=Cc2cnc3ccc(C#N)cc3c2)CC(C)C(=O)C(C)C2NC(=O)OC12C (centres unmarked) [Example 218, R is —CH2CH═CH-(6-cyano-3-quinolyl)]
Organism code AA
  MIC: 0.1 µg/mL (≈ 0.126 µM)
Organism code BB
  MIC: 0.1 µg/mL (≈ 0.126 µM)
Organism code CC
  MIC: > 100 µg/mL
Organism code DD
  MIC: 0.1 µg/mL (≈ 0.126 µM)
Organism code EE
  MIC: 0.1 µg/mL (≈ 0.126 µM)
Organism code FF
  MIC: 0.1 µg/mL (≈ 0.126 µM)
Organism code GG
  MIC: > 100 µg/mL
Organism code HH
  MIC: 0.01 µg/mL (≈ 0.0126 µM)
Organism code II
  MIC: 0.05 µg/mL (≈ 0.0632 µM)
Organism code JJ
  MIC: 0.01 µg/mL (≈ 0.0126 µM)
Organism code KK
  MIC: 0.01 µg/mL (≈ 0.0126 µM)
Organism code LL
  MIC: 0.01 µg/mL (≈ 0.0126 µM)
Organism code MM
  MIC: 6.2 µg/mL (≈ 7.84 µM)
Organism code NN
  MIC: 0.2 µg/mL (≈ 0.253 µM)
Organism code OO
  MIC: 0.05 µg/mL (≈ 0.0632 µM)
Organism code PP
  MIC: 0.05 µg/mL (≈ 0.0632 µM)
Organism code QQ
  MIC: 50 µg/mL (≈ 63.2 µM)
Organism code RR
  MIC: 0.39 µg/mL (≈ 0.493 µM)
Organism code SS
  MIC: > 100 µg/mL
Organism code TT
  MIC: > 100 µg/mL
Organism code UU
  MIC: 0.78 µg/mL (≈ 0.986 µM)
Organism code VV
  MIC: 0.05 µg/mL (≈ 0.0632 µM)
Organism code XX
  MIC: 0.015 µg/mL (≈ 0.019 µM)
Organism code YY
  MIC: 0.015 µg/mL (≈ 0.019 µM)
Organism code ZZ
  MIC: 4 µg/mL (≈ 5.06 µM)
Organism code ZZA
  MIC: 0.25 µg/mL (≈ 0.316 µM)
